Test: xn = mol fraction of the nth substance listed

C#CCO + O
viscosity [mPa·s]
Details | 303.15 K | 308.15 K | 313.15 K | 318.15 K | 323.15 K
101 kPa, x1 = 0.1 | 1.094 | 0.9708 | 0.8728 | 0.7923 | 0.7208
101 kPa, x1 = 0.166 | 1.191 | 1.06 | 0.9534 | 0.8633 | 0.7845
101 kPa, x1 = 0.3 | 1.275 | 1.135 | 1.023 | 0.9273 | 0.845
101 kPa, x1 = 0.4 | 1.291 | 1.157 | 1.048 | 0.9513 | 0.8707
101 kPa, x1 = 0.499 | 1.296 | 1.165 | 1.054 | 0.9624 | 0.8802
101 kPa, x1 = 0.599 | 1.309 | 1.179 | 1.069 | 0.9758 | 0.8933
101 kPa, x1 = 0.7 | 1.313 | 1.188 | 1.079 | 0.9844 | 0.902
101 kPa, x1 = 0.801 | 1.327 | 1.202 | 1.092 | 0.9977 | 0.9169
101 kPa, x1 = 0.899 | 1.33 | 1.204 | 1.095 | 1 | 0.9179
101.32 kPa, x1 = 0.1138 | – | 0.9894 | 0.8862 | 0.7991 | 0.7267
101.32 kPa, x1 = 0.2351 | – | 1.105 | 0.9927 | 0.8936 | 0.8222
101.32 kPa, x1 = 0.3145 | – | 1.149 | 1.034 | 0.9365 | 0.8508
101.32 kPa, x1 = 0.4174 | – | 1.171 | 1.059 | 0.9551 | 0.8741
101.32 kPa, x1 = 0.5002 | – | 1.186 | 1.069 | 0.9676 | 0.8856
101.32 kPa, x1 = 0.61 | – | 1.194 | 1.077 | 0.9877 | 0.8958
101.32 kPa, x1 = 0.7185 | – | 1.2 | 1.085 | 0.9924 | 0.9072
101.32 kPa, x1 = 0.8223 | – | 1.209 | 1.095 | 1 | 0.9191
101.32 kPa, x1 = 0.9 | – | 1.216 | 1.107 | 1.007 | 0.9223

C1COCO1 + O
viscosity [mPa·s], 101 kPa
Details | 298.15 K | 303.15 K | 308.15 K | 313.15 K | 318.15 K | 323.15 K
x1 = 0.01 | 0.754 | – | 0.6051 | – | 0.5251 | –
x1 = 0.026 | 0.813 | – | 0.6561 | – | 0.5671 | –
x1 = 0.03 | – | 0.8133 | – | 0.6555 | – | 0.5673
x1 = 0.041 | 0.8741 | – | 0.7144 | – | 0.6071 | –
x1 = 0.06 | – | 0.8766 | – | 0.7152 | – | 0.6053
x1 = 0.09 | – | 0.9304 | – | 0.7618 | – | 0.6297

CCC(O)CC + O
298.15 K, 101 kPa
Details | viscosity [mPa·s]
x2 = 0.0181 | 4.598
x2 = 0.0463 | 4.339
x2 = 0.0845 | 4.074
x2 = 0.1302 | 3.873
x2 = 0.1754 | 3.748
x2 = 0.1948 | 3.712
x2 = 0.2262 | 3.67
x2 = 0.2533 | 3.65
x2 = 0.2782 | 3.641
x2 = 0.3215 | 3.648

CCCCCCn1cc[n+](C)c1.[Br-] + O
303.15 K, 101 kPa
Details | viscosity [mPa·s]
x2 = 0.2196 | 695.5
x2 = 0.2978 | 395.5

CCN(CCO)CCO + O
viscosity [mPa·s], 101 kPa
Details | 303.15 K | 308.15 K | 313.15 K | 318.15 K | 323.15 K
x1 = 0.0478 | 2.433 | 2.084 | 1.809 | 1.585 | 1.4
x1 = 0.1002 | 5.975 | 4.885 | 4.051 | 3.403 | 2.897
x1 = 0.1411 | 10.13 | 8.044 | 6.499 | 5.322 | 4.422
x1 = 0.1933 | 16.59 | 12.84 | 10.12 | 8.088 | 6.604
x1 = 0.2959 | 31.21 | 23.36 | 17.84 | 13.84 | 10.95
x1 = 0.3944 | 43.07 | 31.83 | 24.05 | 18.38 | 14.39
x1 = 0.495 | 51.1 | 37.78 | 28.28 | 21.56 | 16.84
x1 = 0.5912 | 54.81 | 40.53 | 30.44 | 23.28 | 18.22
x1 = 0.7064 | 55.22 | 40.91 | 31.03 | 23.93 | 18.76
x1 = 0.8113 | 53.42 | 39.97 | 30.47 | 23.66 | 18.65
x1 = 0.8934 | 51.39 | 38.76 | 29.74 | 23.19 | 18.44

CN1CCCCCC1=O + O
298.16 K, 101 kPa
Details | viscosity [mPa·s]
x2 = 0.0975 | 5.35
x2 = 0.2528 | 6.17
x2 = 0.4046 | 7.19
x2 = 0.4996 | 7.85
x2 = 0.577 | 8.2
x2 = 0.63 | 8.28
x2 = 0.7444 | 7.43
x2 = 0.8512 | 5.1

C[N+](C)(C)CCO.O=C([O-])CC(=O)O + O
viscosity [mPa·s], 100 kPa
Details | x2 = 0.01 | x2 = 0.17 | x2 = 0.22 | x2 = 0.38 | x2 = 0.5 | x2 = 0.58 | x2 = 0.632 | x2 = 0.673 | x2 = 0.864
293.15 K | 12050 | 4381 | 3565 | 1377 | 622.1 | 312.8 | 206.3 | 145.4 | 14.3
298.15 K | 7430 | 2850 | 2316 | 941.2 | 438.7 | 227 | 152.2 | 108.9 | 11.9
303.15 K | 4675 | 1908 | 1563 | 651 | 317.1 | 168.5 | 114.7 | 83.2 | 9.9
308.15 K | 3076 | 1312 | 1084 | 467.9 | 234.5 | 127.7 | 88.2 | 64.8 | 8.4
313.15 K | 2089 | 924.5 | 770 | 343.9 | 177.1 | 98.6 | 69 | 51.3 | 7
318.15 K | 1453 | 666.7 | 559.7 | 257.6 | 136.3 | 77.5 | 54.9 | 41.2 | 6.2
323.15 K | 1034 | 491 | 415.2 | 199.7 | 106.8 | 61.8 | 44.4 | 33.6 | 5.4

C[n+]1cc([O-])on1 + O
313.15 K, 101 kPa
Details | viscosity [mPa·s]
x2 = 0.1304 | 4.405
x2 = 0.2625 | 3.634
x2 = 0.4242 | 2.894
x2 = 0.6104 | 2.178
x2 = 0.7384 | 1.687
x2 = 0.882 | 1.121
x2 = 0.9089 | 1.015
x2 = 0.9709 | 0.775
x2 = 0.9746 | 0.768

Cn1cc[n+](CC(O)CNCCN(CCNCC(O)C[n+]2ccn(C)c2)CC(O)C[n+]2ccn(C)c2)c1.[Cl-].[Cl-].[Cl-] (stereo unspecified) + O
101.33 kPa, x2 = 0.49
Details | viscosity [mPa·s]
298.15 K | 1956
308.15 K | 779.1
318.15 K | 370.5

O=C(O)[C@@H](O)[C@@H](O)C(=O)O + O
298 K, 101.3 kPa
Details | viscosity [mPa·s]
x1 = 0.000823 | 0.9012
x1 = 0.00165 | 0.9144
x1 = 0.003567 | 0.9399
x1 = 0.005454 | 0.9656
x1 = 0.006888 | 0.99
x1 = 0.00872 | 1.018
x1 = 0.01004 | 1.034
x1 = 0.01181 | 1.066

O=C1CCC[NH+]1C1CCCCC1.O=S(=O)([O-])c1ccccc1 + O
Details | viscosity [mPa·s]
303.15 K, 101 kPa, x1 = 0.01351 | 1.405

O=N[O-].[Na+] + O
viscosity [mPa·s]
Details | x1 = 0.0182 | x1 = 0.0368 | x1 = 0.0558 | x1 = 0.0753 | x1 = 0.0989 | x2 = 0.85 | x2 = 0.87 | x2 = 0.89 | x2 = 0.92 | x2 = 0.94
293.15 K, 101.33 kPa | – | – | – | – | – | 2.834 | 2.248 | 1.903 | 1.494 | 1.374
298.15 K, 101 kPa | 0.97 | 1.09 | 1.24 | 1.43 | 1.73 | – | – | – | – | –
313.15 K, 101 kPa | 0.72 | 0.82 | 0.93 | 1.05 | 1.26 | – | – | – | – | –

O=S(=O)([N-]S(=O)(=O)C(F)(F)C(F)(F)F)C(F)(F)F.[Li+] + O
101 kPa, x1 = 0.3
Details | viscosity [mPa·s]
293.15 K | 145
298.15 K | 114
303.15 K | 89.8
313.15 K | 58.8
323.15 K | 40.2

[Al+3].[Cl-].[Cl-].[Cl-] + O
Details | viscosity [mPa·s]
293.15 K, 101 kPa, x1 = 0.039 | 5.58

FCC(F)(F)F + OCCO
viscosity [mPa·s], 101.32 kPa
Details | x2 = 0.948 | x2 = 0.949 | x2 = 0.964 | x2 = 0.965 | x2 = 0.974 | x2 = 0.975
293.15 K | 16.9 | – | 17.1 | – | 17.9 | –
313.15 K | – | 7.76 | – | 7.91 | – | 7.86

FCC(F)(F)F + OCCOCCO
viscosity [mPa·s], 101.32 kPa
Details | x2 = 0.788 | x2 = 0.814 | x2 = 0.816 | x2 = 0.844 | x2 = 0.845 | x2 = 0.892 | x2 = 0.893
293.15 K | 12.4 | 14.3 | – | 16.7 | – | 21 | –
313.15 K | – | – | 6.78 | – | 7.29 | – | 8.26

FCC(F)(F)F + OCCOCCOCCO
viscosity [mPa·s], 101.32 kPa
Details | x2 = 0.732 | x2 = 0.733 | x2 = 0.79 | x2 = 0.791 | x2 = 0.901 | x2 = 0.903
293.15 K | 11.3 | – | 15.8 | – | 28.9 | –
313.15 K | – | 5.52 | – | 7.14 | – | 11.2

CC(=O)c1ccccc1 + OCc1ccccc1
303.15 K, 101 kPa
Details | viscosity [mPa·s]
x1 = 0.0742 | 4.331
x1 = 0.2566 | 3.618
x1 = 0.3107 | 3.42
x1 = 0.4505 | 2.937
x1 = 0.528 | 2.685
x1 = 0.5727 | 2.544
x1 = 0.7494 | 2.036
x1 = 0.8383 | 1.82
x1 = 0.9234 | 1.638

C[N+](C)(C)C.[Cl-] + Oc1ccccc1
viscosity [mPa·s], 101 kPa
Details | 303.15 K | 313.15 K | 323.15 K
x1 = 0.2 | 23.35 | 16.88 | 11.9
x1 = 0.25 | 36.91 | 23.75 | 16.31

O=S(Cl)Cl + [Cl-].[Cl-].[Cl-].[Cl-].[Sn+4]
298.15 K, 101 kPa
Details | viscosity [mPa·s]
x1 = 0.402 | 0.7259
x1 = 0.517 | 0.7057
x1 = 0.803 | 0.6524

ClC(Cl)C(Cl)(Cl)Cl + c1ccc(Oc2ccccc2)cc1
298.15 K, 101 kPa
Details | viscosity [mPa·s]
x2 = 0.2642 | 2.64
x2 = 0.5109 | 2.97
x2 = 0.7611 | 3.36

CCC(O)CC + c1ccccc1
293.15 K, 101 kPa
Details | viscosity [mPa·s]
x1 = 0.00635 | 0.6446
x1 = 0.01101 | 0.6433
x1 = 0.01253 | 0.643
x1 = 0.01995 | 0.6415
x1 = 0.02106 | 0.6411
x1 = 0.02501 | 0.641
x1 = 0.02806 | 0.6407
x1 = 0.03344 | 0.6406
x1 = 0.03446 | 0.6405
x1 = 0.03706 | 0.6399
x1 = 0.04178 | 0.6401
x1 = 0.04896 | 0.6415
x1 = 0.05587 | 0.6414
x1 = 0.06451 | 0.6436
x1 = 0.08637 | 0.6486
x1 = 0.1808 | 0.6856
x1 = 0.2725 | 0.7429
x1 = 0.3756 | 0.835
x1 = 0.468 | 0.9578
x1 = 0.6521 | 1.402
x1 = 0.7757 | 1.943
x1 = 0.8899 | 2.92
